Results from the supplement of paper PMC10307832.

How the values were obtained:
[1] = compound: CCOC(=O)CCNc1cc(N2CCc3ccccc3CC2)nc(-c2ccccn2)n1 [GSK-J4] + CC(=O)Nc1cccc(-n2c(=O)n(C3CC3)c(=O)c3c(Nc4ccc(I)cc4F)n(C)c(=O)c(C)c32)c1 [Trametinib] (partner 0.02 µM); assay: relative viability (nuclei count vs DMSO), 5 days (fraction); higher = more cells survive
Outline: (§1)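 Each reported value is a median over duplicate plates. It expresses relative viability: treated-well nuclei count divided by vehicle-well nuclei count. Lung cancer cell lines in 1536-well plates were dosed by pin tool a day after seeding, alone with one drug or with a fixed anchor-drug dose plus five library-drug doses (not always all listed) in √10 steps, and nuclei were counted after 5 days.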

[2] = compound: CN1CCC(CC1)OC2=CC(=C(C=C2)NC3=NC=C4C(=N3)N(C(=O)N4C)C5CCCC5)OC [AZ3146] + Cc1nc(Nc2ncc(C(=O)Nc3c(C)cccc3Cl)s2)cc(N2CCN(CCO)CC2)n1 [Dasatinib] (partner 0.075 µM); assay: as above
Outline: as §1

Cell Line | relative viability ([1]; first compound 0.5 µM) | relative viability ([1]; first compound 5 µM) | relative viability ([1]; first compound 15.81 µM) | relative viability ([1]; first compound 50 µM) | relative viability ([2]; first compound 0.08 µM) | relative viability ([2]; first compound 0.253 µM) | relative viability ([2]; first compound 0.8 µM) | relative viability ([2]; first compound 2.53 µM) | relative viability ([2]; first compound 8 µM) | relative viability ([1]; first compound 1.581 µM)
COR-L 105 | 0.467 | 0.46 | 0.458 | 0.451 | 0.394 | 0.261 | 0.238 | 0.288 | 0.191 | –
NCI-H647 | 0.521 | 0.357 | 0.445 | 0.499 | 0.214 | 0.186 | 0.178 | 0.216 | 0.138 | 0.393
NCI-H1915 | 0.299 | – | 0.28 | 0.293 | 0.262 | 0.344 | 0.337 | 0.301 | 0.318 | 0.302
NCI-H2087 | 0.189 | 0.257 | 0.169 | 0.222 | 0.802 | 1.09 | 0.902 | 0.801 | 0.702 | 0.171
NCI-H2085 | 0.482 | 0.586 | 0.517 | 0.57 | 0.256 | 0.231 | 0.266 | 0.257 | 0.208 | 0.663
